Measurements reported in patent publication US20100129800A1, “POLYMERS AND THEIR USE AS FLUORESCENT LABELS” (priority 2007, published 2010).

test: Fluorescence properties of the new compounds (excitation and emission wavelengths); format: physicochemical; details: free compound

SMILES | Fluorescence Excitation (nm) | Fluorescence emission (nm)
CC(O)C(COP(=O)(O)OC(C)C(COP(=O)(O)OC(C)C(CO)NC(=O)c1c2ccccc2nc2ccccc12)NC(=O)c1c2ccccc2nc2c1[nH]c1ccccc12)NC(=O)Cn1c2nc3ccccc3c-2cc2ccccc21 (stereo not shown) [Example 45, O-{2-N-(Acridine-9-carbamoyl)-(1-hydroxybut-3-yl)} phosphate (3-1) O-{2-N-(10H-indolo[3,2-d]quinoline-11-carbamoyl)-3-oxybut-1-yl} phosphate (3-1) O-{2-N-(5H-indolo[2,3-b]quinolin-5-yl)acetamido-3-hydroxybut-1-yl)] | 271 | 449
CC(=O)NCCN(CC(=O)NCCN(CC(=O)NCCCCCCO)C(=O)CNC(=O)c1c2ccccc2nc2ccccc12)C(=O)CNC(=O)c1c2ccccc2nc2ccccc12 [Example 46] | 248 | 441
CC(=O)NCCN(CC(=O)NCCN(CC(=O)NCCN(CC(=O)NCCCCCCO)C(=O)CNC(=O)c1c2ccccc2nc2ccccc12)C(=O)CNC(=O)c1c2ccccc2nc2ccccc12)C(=O)CNC(=O)c1c2ccccc2nc2ccccc12 [Example 47] | 360 | 436
CC(=O)NC1CC(C(N)=O)N(C(=O)CNC(=O)c2c3ccccc3nc3ccccc23)C1 (stereo not shown) [Example 50, N-[2-(Acridine-9-carboxamide)acetyl]-4-N-acetamidoprolinamide] | 282 | 439
CC(=O)NC1CC(C(N)=O)N(C(=O)CNC(=O)c2c3ccccc3nc3c2[nH]c2ccccc23)C1 (stereo not shown) [Example 51, N-{2-(10H-indolo[3,2-b]quinoline-11-carboxamide)acetyl}-4-N-acetamidoprolinamide] | 347 | 502
CC(=O)N1CC(NC(=O)CNC(=O)c2c3ccccc3nc3ccccc23)C[C@H]1C(=O)N1CC(NC(=O)CNC(=O)c2c3ccccc3nc3ccccc23)C[C@H]1C(N)=O (stereo partly shown) [Example 52, N^4-Acetyl-4-amino-{2-(acridine-9-carboxamide)acetyl}prolinyl-4-amino-{2-(acridine-9-carboxamide)acetyl}prolinamide] | 274 | 450
CC(=O)N1CC(NC(=O)CNC(=O)c2c3ccccc3nc3c2[nH]c2ccccc23)C[C@H]1C(=O)N1CC(NC(=O)CNC(=O)c2c3ccccc3nc3c2[nH]c2ccccc23)C[C@H]1C(N)=O (stereo partly shown) [Example 53, N^4-Acetyl-4-amino-{2-(10H-indolo[3,2-b]quinoline-11-carboxamide)acetyl}prolinyl-4-amino-{2-(10H-indolo[3,2-b]quinoline-11-carboxamide)acetyl}prolinamide] | 348 | –
CC(=O)NC1CC(C(=O)NC2CC(C(N)=O)N(C(=O)CNC(=O)c3c4ccccc4nc4ccccc34)C2)N(C(=O)CNC(=O)c2c3ccccc3nc3c2[nH]c2ccccc23)C1 (stereo not shown) [Example 54, 10H-Indolo[3,2-b]quinoline-11-carboxylic acid {2-[4-acetylamino-2-(1-{2-[(acridine-9-carbonyl)-amino]-acetyl}-5-carbamoyl-pyrrolidin-3-ylcarbamoyl)-pyrrolidin-1-yl]-2-oxo-ethyl}-amide] | 273 | 498
CC(=O)NC1CC(C(=O)NC2CC(C(N)=O)N(C(=O)CNC(=O)c3c4ccccc4nc4c3[nH]c3ccccc34)C2)N(C(=O)CNC(=O)c2c3ccccc3nc3ccccc23)C1 (stereo not shown) [Example 55, 10H-Indolo[3,2-b]quinoline-11-carboxylic acid (2-{4-[4(4-acetylamino-1-{2-[(acridine-9-carbonyl)-amino]-acetyl}-pyrrolidine-2-carbonyl)-amino]-2-carbamoyl-pyrrolidin-1-yl}-2-oxo-ethyl)-amide] | 308 | 500
CC(=O)NC1CC(C(=O)NC2CC(C(=O)NC3CC(C(N)=O)N(C(=O)CNC(=O)c4c5ccccc5nc5ccccc45)C3)N(C(=O)CNC(=O)c3c4ccccc4nc4ccccc34)C2)N(C(=O)CNC(=O)c2c3ccccc3nc3ccccc23)C1 (stereo not shown) [Example 56, N^4-Acetyl-4-amino-{2-(acridine-9-carboxamide)acetyl}prolinyl-4-amino-{2-(acridine-9-carboxamide)acetyl}prolinyl-4-amino-{2-(acridine-9-carboxamide)acetyl}prolinamide] | 275 | 440
CC(=O)NC1CC(C(=O)NC2CC(C(=O)NC3CC(C(N)=O)N(C(=O)CNC(=O)c4c5ccccc5nc5c4[nH]c4ccccc45)C3)N(C(=O)CNC(=O)c3c4ccccc4nc4c3[nH]c3ccccc34)C2)N(C(=O)CNC(=O)c2c3ccccc3nc3c2[nH]c2ccccc23)C1 (stereo not shown) [Example 57, N^4-Acetyl-4-amino-{2-(10H-indolo[3,2-b]quinoline-11-carboxamide)acetyl}prolinyl-4-amino-{2-(10H-indolo[3,2-b]quinoline-11-carboxamide)acetyl}prolinyl-{2-(10H-indolo[3,2-b]quinoline-11-carboxamide)acetyl}prolinamide] | 348 | 505
CC(=O)NC1CC(C(=O)NC2CC(C(=O)NC3CC(C(N)=O)N(C(=O)CNC(=O)c4c5ccccc5nc5ccccc45)C3)N(C(=O)CNC(=O)c3c4ccccc4nc4c3[nH]c3ccccc34)C2)N(C(=O)CNC(=O)c2c3ccccc3nc3ccccc23)C1 (stereo not shown) [Example 58, N^4-Acetyl-4-amino-{2-(acridine-9-carboxamide)acetyl}prolinyl-4-amino-{2-(10H-indolo[3,2-b]quinoline-11-carboxamide)acetyl}proliny-4-amino-{2-(acridine-9-carboxamide)acetyl}prolinamide] | 275 | 503
CC(=O)N[C@H]1C[C@@H](C(=O)N[C@H]2C[C@@H](C(=O)N[C@H]3C[C@@H](C(N)=O)N(C(=O)CNC(=O)c4c5ccccc5nc5ccccc45)C3)N(C(=O)CNC(=O)c3c4ccccc4nc4ccccc34)C2)N(C(=O)CNC(=O)c2c3ccccc3nc3c2[nH]c2ccccc23)C1 [Example 60, N^4-Acetyl-4-amino-{2-(10H-indolo[3,2-b]quinoline-11-carboxamide)acetyl}prolinyl-4-amino-{2-(acridine-9-carboxamide)acetyl}prolinyl-4-amino-{2-(acridine-9-carboxamide)acetyl}prolinamide] | 309 | 456
CC(=O)NC1CC(C(=O)NC2CC(C(=O)NC3CC(C(N)=O)N(C(=O)CNC(=O)c4c5ccccc5nc5c4[nH]c4ccccc45)C3)N(C(=O)CNC(=O)c3c4ccccc4nc4ccccc34)C2)N(C(=O)CNC(=O)c2c3ccccc3nc3c2[nH]c2ccccc23)C1 (stereo not shown) [Example 61, N^4-Acetyl-4-amino-{2-(10H-indolo[3,2-b]quinoline-11-carboxamide)acetyl}prolinyl-4-amino-{2-(acridine-9-carboxamide)acetyl}prolinyl-4-amino-{2-(10H-indolo[3,2-b]quinoline-11-carboxamide)acetyl}prolinamide] | 348 | 488
CC(=O)N1CC(NC(=O)CNC(=O)c2c3ccccc3nc3ccccc23)C[C@H]1C(=O)N1CC(NC(=O)CNC(=O)c2c3ccccc3nc3c2[nH]c2ccccc23)C[C@H]1C(=O)N1CC(NC(=O)CNC(=O)c2c3ccccc3nc3c2[nH]c2ccccc23)C[C@H]1C(N)=O (stereo partly shown) [Example 63, N^4-Acetyl-4-amino-{2-(acridine-9-carboxamide)acetyl}prolinyl-4-amino-{2-(10H-indolo[3,2-b]quinoline-11-carboxamide)acetyl}proliny-4-amino-{2-(10H-indolo[3,2-b]quinoline-11-carboxamide)acetyl}prolinamide] | 272 | 503
CC(=O)NC1CC(C(=O)NC2CC(C(=O)NC3CC(C(=O)NC4CC(C(=O)NC5CC(C(N)=O)N(C(=O)CNC(=O)c6cc(-c7ccccc7)nc7ccccc67)C5)N(C(C)=O)C4)N(C(=O)CNC(=O)c4c5ccccc5nc5ccccc45)C3)N(C(C)=O)C2)N(C(=O)CNC(=O)c2c3ccccc3nc3c2[nH]c2ccccc23)C1 (stereo not shown) [Example 64] | 347 | 488
CC(=O)NC1CC(C(=O)NC2CC(C(=O)NC3CC(C(=O)NC4CC(C(=O)NC5CC(C(N)=O)N(C(=O)CNC(=O)c6c7ccccc7nc7c6[nH]c6ccccc67)C5)N(C(C)=O)C4)N(C(=O)CNC(=O)c4cc(-c5ccccc5)nc5ccccc45)C3)N(C(C)=O)C2)N(C(=O)CNC(=O)c2c3ccccc3nc3ccccc23)C1 (stereo not shown) [Example 65, N^4-Acetyl-4-amino-{2-(acridine-9-carboxamide)acetyl}prolinyl-4-aminoprolinyl-4-amino-[(2-phenyl-quinoline-4-carboxamide)acetyl]prolinamide-4-aminoprolinyl-4-amino-{2-(10H-indolo[3,2-b]quinoline-11-carboxamide)acetyl}prolinamide] | 249 | 442
CC(=O)NC1CC(C(=O)NC2CC(C(=O)NC3CC(C(=O)NC4CC(C(=O)NC5CC(C(=O)NC6CC(C(=O)NC7CC(C(N)=O)N(C(=O)CNC(=O)c8cc(-c9ccccc9)nc9ccccc89)C7)N(C(C)=O)C6)N(C(C)=O)C5)N(C(=O)CNC(=O)c5c6ccccc6nc6ccccc56)C4)N(C(C)=O)C3)N(C(C)=O)C2)N(C(=O)CNC(=O)c2c3ccccc3nc3c2[nH]c2ccccc23)C1 (stereo not shown) [Example 66, N^4-Acetyl-4-amino-{2-(10H-indolo[3,2-b]quinoline-11-carboxamide)acetyl}prolinyl-4-aminoprolinyl-4-aminoprolinyl-4-amino-{2-(acridine-9-carboxamide)acetyl}prolinyl-4-aminoprolinyl-4-aminoprolinyl-4-amino-[(2-phenyl-quinoline-4-carboxamide)acetyl]prolinamide] | 269 | 432
CC(=O)NC1CC(C(=O)NC2CC(C(=O)NC3CC(C(=O)NC4CC(C(=O)NC5CC(C(=O)NC6CC(C(=O)NC7CC(C(N)=O)N(C(=O)CNC(=O)c8c9ccccc9nc9c8[nH]c8ccccc89)C7)N(C(C)=O)C6)N(C(C)=O)C5)N(C(=O)CNC(=O)c5cc(-c6ccccc6)nc6ccccc56)C4)N(C(C)=O)C3)N(C(C)=O)C2)N(C(=O)CNC(=O)c2c3ccccc3nc3ccccc23)C1 (stereo not shown) [Example 67] | 265 | 451
